From patent US4933330A, “Benzoic acid derivatives and use thereof” (priority 1987, dated 1990)

Columns and labels:
[1] = test system: psoriasis and contact dermatitis; experiment: Conclusion of clinical testing (psoriasis and contact dermatitis); format: in vivo, patients; conditions: active formulations
Description: 1. Patients with wide-spread psoriasis receiving systemic treatment with methotrexate, retinoids or topical treatment with dithranol or tar-preparations. An area of 5×5 cm^2 was used for treatment with compositions 1, 2 and 3 in an increasing concentration. A total of 5 patients were treated on in-patient basis, and the results were evaluated 2-3 times a week.
2. In 3 out of 5 other patients treated with 5-ASA cream under occulsion with a thin plastic film a dramatic effect was seen after 4-6 days.
3. 5% 5-ASA cream and placebo cream was compared in a randomized, double-blind, bilaterial trial with 5 psoriatic in-patients. Two contralateral psoriasis plaques of the same severity were treated for one week with the 5-ASA cream and placebo cream, respectively, with the concomitant use of an occulsive dressing.
4. 5% 4-ASA cream and placebo cream were compared in a randomized, double blind, bilateral trial with 10 psoriasis out-patients. […]
Ten patients with known nickel allergy and 15 patients with known allergy to other compounds were tested with 5% 5-ASA cream and placebo cream in a randomized, double blind, bilateral trial. […] The study areas were occluded with Finn chambers for 48 hours, and the patients' symptoms were recorded. After 72 hours, the patch test reactions were evaluated and the patients' symptoms recorded.

[2] = In vivo absorption of 4-ASA (serum and urine) in healthy volunteers; conditions: for Highest serum levels recalculated to treatment of the whole body, passive and active side: versus 4-ASA perorally in tuberculosis treatment
[3] = chronic inflammatory bowel disease; cited from earlier work
[4] = In vitro dermal absorption in Franz Diffusion cells; format: in vitro ADME, human; conditions: for Detection of unchanged prodrug after penetration of the skin / Production of 5-ASA in free form after absorption / Absorbed amounts, 5-ASA versus prodrug No. 350: human skin in vitro
Description: Franz Diffusion cells (FDC) are systems for the measurements of percutaneous absorption by the finite dose technique. Human skin is mounted in specially constructed diffusion chambers (FDC), and the skin is batched from below by a reservoir solution. 3×10 μl solution (1 mg/ml) of the following compounds were applied to human skin in Franz diffusion cells (0.636 cm^2) and kept at 37° C. by thermostatic control: Compound 1=5-ASA […] Samples were taken from the reservoir at intervals for 76 hours and analyzed by HPLC for 5-ASA and the prodrugs themselves.

[5] = In vivo dermal absorption of 5-ASA (serum and urine) in healthy volunteers
Description: Serum concentrations and the amount excreted in urine of 5-ASA and the 5-ASA metabolite: […] The study was performed as an open study, divided into the following parts: Part I: 2 volunteers, normal skin, single dose. Part IA: 1 volunteer, stripped skin and 1 volunteer, normal skin and occlusion, single dose. Part IB: 1 volunteer, stripped skin and occlusion, single dose. Part II: 6 volunteers, stripped skin day 1, and occlusion day 1 and day 8, multiple doses. Part I, IA and IB: 0.5 g 5% 5-ASA cream was applied to one forearm of the volunteer and blood samples were taken at intervals for 6 hours from both arms. 24 hour urine samples were collected. […] Blood and urine were collected as described above on day 1 and 8. […] Clinical chemistry tests showing the state of the patient (blood status, liver and kidney function, etc.) were performed before and after the study.

rat = conditions: intravenously; cited from earlier work
[6] = test system: allergy to other compounds; experiment: Contact dermatitis/allergy test, patients with allergy to other compounds; format: in vivo; conditions: 5% 5-ASA cream vs placebo
Description: (§1) Ten patients with known nickel allergy and 15 patients with known allergy to other compounds were tested with 5% 5-ASA cream and placebo cream in a randomized, double blind, bilateral trial. The allergen was applied on two 1×1 cm^2 areas and the study creams were then applied on the left and right 2×2 cm^2 study areas, respectively. The study areas were occluded with Finn chambers for 48 hours, and the patients' symptoms were recorded. After 72 hours, the patch test reactions were evaluated and the patients' symptoms recorded.

nickel allergy = experiment: Contact dermatitis/allergy test, patients with nickel allergy; format: in vivo; conditions: 5% 5-ASA cream vs placebo; after 72 hours
Description: as §1

psoriasis plaques = experiment: Randomized, bilateral trial of 5% 5-ASA cream vs placebo, 48 psoriasis patients; format: in vivo
Description: Objective: To compare 5% 5-ASA cream with placebo cream in psoriasis patients.
5% 5-ASA cream and placebo cream were compared in a randomized, bilateral trial with 48 psoriasis patients (24 hospitalized and 24 out-patients). Two contralateral psoriasis plaques (5×5 cm^2 -10×10 cm^2) of the same severity were treated 3 times daily for two weeks (occulsion at night) with the 5-ASA and placebo creams, respectively.
Any reported adverse reactions were noted.
The differences between the "active side" (treated with 5-ASA) and the "placebo side" were statistically tested by a binomial distribution test.

[7] = human, serum, topical or ocular, 25 mg
[8] = % of dose through the skin during 76 hours, 3×10 μl of 1 mg/ml, 37° C.
[9] = human, in vivo, topical or ocular

SMILES: Nc1ccc(C(=O)O)c(O)c1 [Example 4-ASA, 4-aminosalicylic acid]
- Efficacy vs placebo in comparative trials [1]: more efficient than placebo
- concentration at 0.25 h [2, 7]: 24 ng/mL
- concentration at 0.5 h [2, 7]: 43 ng/mL
- concentration at 1.5 h [2, 7]: 16 ng/mL
- Highest serum levels recalculated to treatment of the whole body, passive and active side [2]: within the values reported after use of 4-ASA perorally in tuberculosis treatment

SMILES: Nc1ccc(S(=O)(=O)Nc2ccccn2)cc1 [Sulphapyridine]
- Side effects after treatment with salazosulphapyridine [3]: responsible for the side effects reported after treatment with salazosulphapyridine

SMILES: CC(=O)Nc1ccc(C(=O)O)c(O)c1 [Ac-4-ASA, N-acetyl-4-aminosalicylic acid]
- Highest serum levels recalculated to treatment of the whole body, passive and active side [2]: within the values reported after use of 4-ASA perorally in tuberculosis treatment
- Amount in urine ([2]; versus peroral administration): very small amounts in urine

SMILES: CCOC(=O)c1cc(N)ccc1O [Prodrug No. 345, Ethyl 2-hydroxy-5-aminobenzoate]
- % absorbed, compound measured: 5-ASA [4, 8]: 18.2-24.0%
- % absorbed, compound measured: prodrug itself [4, 8]: 36.1-45.4%
- Enhanced absorption, % of the dose ([4]; as much as, 76 hours): ≤ 70 % of the dose
- Detection of unchanged prodrug after penetration of the skin [4]: detected unchanged after penetration of the skin
- Production of 5-ASA in free form after absorption [4]: could produce 5-ASA in free form after absorption through human skin in vitro

SMILES: Nc1ccc(O)c(C(=O)O)c1 [Example 5-ASA, 5-aminosalicylic acid, reference compound]
- % absorbed, compound measured: 5-ASA [4, 8]: 7.8-15.6%
- Absorbed amounts, 5-ASA versus prodrug No. 350 [4]: of the same size
- Absorption through normal skin ([5]; 5% 5-ASA cream, normal skin): No absorption through normal skin was detected
- Absorption through occluded skin ([5]; 5% 5-ASA cream, occluded skin, late): Small amounts
- Absorption through both stripped and occluded skin ([5]; 5% 5-ASA cream, stripped and occluded skin): larger amounts
- Absorption through stripped skin ([5]; 5% 5-ASA cream, stripped skin, early): Small amounts
- Maximum serum concentration recalculated to treatment of the whole body, active side ([5]; human, in vivo): 2-3 times the values reported in studies with SASP
- Maximum serum concentration recalculated to treatment of the whole body, passive side ([5]; human, in vivo): within the values reported in studies with salazosulphapyridine (SASP)
- concentration at 0.25 h [5, 9]: 19.4 ng/mL
- concentration at 0.5 h [5, 9]: 8.3 ng/mL
- concentration at 0.75 h [5, 9]: 7.3 ng/mL
- concentration at 1 h [5, 9]: 8.2 ng/mL
- concentration at 1.5 h [5, 9]: 7.1 ng/mL
- concentration at 2 h [5, 9]: 3.9 ng/mL
- concentration at 4 h [5, 9]: 17.2 ng/mL
- concentration at 6 h [5, 9]: 22.9 ng/mL
- Nephrotoxic dose (rat): 300 to 900 mg/kg
- Preference of patients vs placebo [6]: about twice as many patients preferred the 5-ASA treatment in comparison with placebo
- Efficacy vs placebo in comparative trials [1]: more efficient than placebo
- Patients showing no difference regarding pruritus (nickel allergy): two
- Patients with preference to 5-ASA regarding pruritus (nickel allergy): Seven out of 10
- Patients with preference to 5-ASA side, investigator's opinion and patch tests (nickel allergy): 9 out of 10
- Effect compared to placebo (conclusion) (psoriasis plaques): A significant effect

SMILES: CC(=O)Nc1ccc(O)c(C(=O)O)c1 [Ac-5-ASA, 2-Hydroxy-5-acetamidobenzoic acid]
- Amount in urine versus peroral or rectal administration ([5]; human, in vivo): much lower in percentages than after peroral or rectal administration
- Maximum serum concentration recalculated to treatment of the whole body, active side ([5]; human, in vivo): 2-3 times the values reported in studies with SASP
- Maximum serum concentration recalculated to treatment of the whole body, passive side ([5]; human, in vivo): within the values reported in studies with salazosulphapyridine (SASP)
- Recovery in urine ([5]; human, in vivo): Only Ac-5-ASA were recovered in urine
- Median serum concentration ([5]; human, in vivo, topical or ocular, 0.25 h): 13.5 ng/mL
- Median serum concentration ([5]; human, in vivo, topical or ocular, 0.5 h): 7.0 ng/mL
- Median serum concentration ([5]; human, in vivo, topical or ocular, 0.75 h): 10.3 ng/mL
- Median serum concentration ([5]; human, in vivo, topical or ocular, 1.5 h): 14.6 ng/mL
- Median serum concentration ([5]; human, in vivo, topical or ocular, 3 h): 8.2 ng/mL

SMILES: CCOC(=O)c1cc(N)ccc1OC(C)=O [Prodrug No. 350, Ethyl 2-acetoxy-5-aminobenzoate]
- % absorbed, compound measured: 5-ASA [4, 8]: 11.9-16.8%
- Absorbed amounts, 5-ASA versus prodrug No. 350 [4]: of the same size
- Detection of unchanged prodrug after penetration of the skin [4]: could not be detected unchanged
- Production of 5-ASA in free form after absorption [4]: could produce 5-ASA in free form after absorption through human skin in vitro
